Test results from the supplement of paper PMC5908809.

What was measured:
NK-YS (IL-2 2.5 ng/mL) [1] = assay: percent inhibition of viability; higher = more inhibition; conditions: 72 h
KHYG-1 (IL-2 2.5 ng/mL) [2] = assay: as above; conditions: 72 h
NKL (IL-2 2.5 ng/mL) [3] = assay: as above; conditions: 72 h
YT (IL-2 2.5 ng/mL) [4] = assay: as above; conditions: 72 h
SNK-6 (IL-2 2.5 ng/mL) [5] = assay: as above; conditions: 72 h
[6] = test system: normal primary NK cells, pool 1 (3 donors), resting (IL-2 0 ng/mL); assay: as above; conditions: 72 h
NK-92 (IL-2 2.5 ng/mL) [7] = assay: as above; conditions: 72 h
DERL-7 (IL-2 2.5 ng/mL) [8] = assay: as above; conditions: 72 h
[9] = test system: normal primary NK cells, pool 3 (3 donors) (IL-2 2.5 ng/mL); assay: as above; conditions: 72 h
KAI3 (IL-2 2.5 ng/mL) [10] = assay: as above; conditions: 72 h
[11] = test system: normal primary NK cells, pool 2 (3 donors) (IL-2 2.5 ng/mL); assay: as above; conditions: 72 h
IMC-1 (IL-2 20 ng/mL) [12] = assay: as above; conditions: 72 h
[13] = test system: normal primary NK cells, pool 1 (3 donors) (IL-2 2.5 ng/mL); assay: as above; conditions: 72 h
[14] = test system: normal NK cells expanded with K562-aAPC; assay: as above; conditions: 72 h, IL-2 2.5 ng/mL
Procedure: (§1)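 Drug sensitivity and resistance testing on K562-aAPC-expanded normal NK cells: 5 concentrations (10-fold steps over a 10,000-fold range), 72 h at 37 °C, viability by CellTiter-Glo normalised to DMSO and benzethonium chloride controls; DSS from the fitted curve.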

NK-YS (IL-2 2.5 ng/mL) [15] = assay: drug sensitivity score (DSS) (DSS units); higher = more sensitive; extreme values may be limits of the assay; conditions: 72 h
KHYG-1 (IL-2 2.5 ng/mL) [16] = assay: as above; conditions: 72 h
NKL (IL-2 2.5 ng/mL) [17] = assay: as above; conditions: 72 h
YT (IL-2 2.5 ng/mL) [18] = assay: as above; conditions: 72 h
SNK-6 (IL-2 2.5 ng/mL) [19] = assay: as above; conditions: 72 h
[20] = test system: normal primary NK cells, pool 1 (3 donors), resting (IL-2 0 ng/mL); assay: as above; conditions: 72 h
NK-92 (IL-2 2.5 ng/mL) [21] = assay: as above; conditions: 72 h
DERL-7 (IL-2 2.5 ng/mL) [22] = assay: as above; conditions: 72 h
[23] = test system: normal primary NK cells, pool 3 (3 donors) (IL-2 2.5 ng/mL); assay: as above; conditions: 72 h
KAI3 (IL-2 2.5 ng/mL) [24] = assay: as above; conditions: 72 h
[25] = test system: normal primary NK cells, pool 2 (3 donors) (IL-2 2.5 ng/mL); assay: as above; conditions: 72 h
IMC-1 (IL-2 20 ng/mL) [26] = assay: as above; conditions: 72 h
[27] = test system: normal primary NK cells, pool 1 (3 donors) (IL-2 2.5 ng/mL); assay: as above; conditions: 72 h
[28] = test system: normal NK cells expanded with K562-aAPC; assay: as above; conditions: 72 h; IL-2 2.5 ng/mL
Procedure: as §1

Oc1ccc2c(c1)CC[C@H](c1ccccc1)[C@@H]2c1ccc(OCCN2CCCC2)cc1 [Lasofoxifene] (max concentration tested 1000 nM)
percent inhibition of viability [%]
Conditions	0.1 nM	1 nM	10 nM	100 nM	1000 nM
DERL-7 (IL-2 2.5 ng/mL) [8]	-2.25	-2.91	-6	-9.21	0.79
IMC-1 (IL-2 20 ng/mL) [12]	0.35	0.07	4.03	6.29	19.9
KAI3 (IL-2 2.5 ng/mL) [10]	-1.79	-1.38	0	-0.11	15.5
KHYG-1 (IL-2 2.5 ng/mL) [2]	-2.09	-2.31	1.74	5.02	8.46
NK-92 (IL-2 2.5 ng/mL) [7]	6.27	1.85	5.66	-5.53	1.52
NK-YS (IL-2 2.5 ng/mL) [1]	1.84	-2.69	2.36	-0.77	10.5
NKL (IL-2 2.5 ng/mL) [3]	-11.5	-1.59	-8.69	-4.01	-9.81
SNK-6 (IL-2 2.5 ng/mL) [5]	4.04	34.2	14.3	17.7	-1.3
YT (IL-2 2.5 ng/mL) [4]	2.75	2.01	2.57	-4.31	1.17
[6]	7.2	-0.67	3.19	-7	6.03
[9]	-15.8	-8.59	-8.05	-11	-1.01
[11]	-15.6	-6.78	-5.24	-11.7	-1.2
[13]	-0.49	-5.39	5.47	-10.7	0.81
[14]	-6.28	-2.87	-0.97	5.89	14.2

Conditions	drug sensitivity score
DERL-7 (IL-2 2.5 ng/mL) [22]	0
IMC-1 (IL-2 20 ng/mL) [26]	0.95
KAI3 (IL-2 2.5 ng/mL) [24]	0.26
KHYG-1 (IL-2 2.5 ng/mL) [16]	0
NK-92 (IL-2 2.5 ng/mL) [21]	0
NK-YS (IL-2 2.5 ng/mL) [15]	0
NKL (IL-2 2.5 ng/mL) [17]	0
SNK-6 (IL-2 2.5 ng/mL) [19]	0
YT (IL-2 2.5 ng/mL) [18]	0
[20]	0
[23]	0
[25]	0
[27]	0
[28]	0.59

CC(C)[C@H]1C(=O)N[C@@H](CCCNC(=N)N)C(=O)NCC(=O)N[C@@H](CC(=O)O)C(=O)N[C@H](Cc2ccccc2)C(=O)N1C [Cilengitide] (max concentration tested 10000 nM)
percent inhibition of viability [%]
Conditions	1 nM	10 nM	100 nM	1000 nM	10000 nM
DERL-7 (IL-2 2.5 ng/mL) [8]	1.94	-0.89	5.16	-1.67	1.74
IMC-1 (IL-2 20 ng/mL) [12]	-4.13	-2.67	-2.6	-4.07	-10
KAI3 (IL-2 2.5 ng/mL) [10]	0.99	-4.51	0.53	-7.41	-4.2
KHYG-1 (IL-2 2.5 ng/mL) [2]	-4.74	-8.58	-8.46	-5.89	-5.46
NK-92 (IL-2 2.5 ng/mL) [7]	-6.89	-15.6	-2.78	-19.4	-3.46
NK-YS (IL-2 2.5 ng/mL) [1]	3.77	-3.77	-3.08	-1.52	-1.33
NKL (IL-2 2.5 ng/mL) [3]	-5.73	-8.69	-8.49	-3.48	-5.17
SNK-6 (IL-2 2.5 ng/mL) [5]	5.33	-1.64	-18.7	-5.25	-3.56
YT (IL-2 2.5 ng/mL) [4]	-3.44	-9.37	-2	-8.27	-2.28
[6]	-16.2	-13.2	-18.2	-14	-17.6
[9]	-10.7	-5.35	-6.3	-9.92	-10.2
[11]	-8.85	-4.43	-5.82	-9.18	-7.87
[13]	-11.5	-10.7	-11.7	-4.42	-5.41
[14]	-8.83	-11.2	-7.88	-10.2	-11.3

Conditions	drug sensitivity score
DERL-7 (IL-2 2.5 ng/mL) [22]	0
IMC-1 (IL-2 20 ng/mL) [26]	0
KAI3 (IL-2 2.5 ng/mL) [24]	0
KHYG-1 (IL-2 2.5 ng/mL) [16]	0
NK-92 (IL-2 2.5 ng/mL) [21]	0
NK-YS (IL-2 2.5 ng/mL) [15]	0
NKL (IL-2 2.5 ng/mL) [17]	0
SNK-6 (IL-2 2.5 ng/mL) [19]	0
YT (IL-2 2.5 ng/mL) [18]	0
[20]	0
[23]	0
[25]	0
[27]	0
[28]	0

Nc1cc(C(F)(F)F)c(-c2cc(N3CCOCC3)nc(N3CCOCC3)n2)cn1 [Buparlisib] (max concentration tested 10000 nM)
percent inhibition of viability [%]
Conditions	1 nM	10 nM	100 nM	1000 nM	10000 nM
DERL-7 (IL-2 2.5 ng/mL) [8]	-4.02	6.38	3.7	42.2	89.9
IMC-1 (IL-2 20 ng/mL) [12]	-4.05	-1.36	2.62	-18.8	99.3
KAI3 (IL-2 2.5 ng/mL) [10]	-7.19	-5.48	-0.56	43	74.8
KHYG-1 (IL-2 2.5 ng/mL) [2]	-1.22	-0.26	7	57.9	101
NK-92 (IL-2 2.5 ng/mL) [7]	7.02	-3.67	15.7	52.4	96.2
NK-YS (IL-2 2.5 ng/mL) [1]	-0.4	-0.39	9.67	55	80
NKL (IL-2 2.5 ng/mL) [3]	-8.01	-1.84	8.57	69.1	73.8
SNK-6 (IL-2 2.5 ng/mL) [5]	33.1	31.2	38.8	73.2	92.7
YT (IL-2 2.5 ng/mL) [4]	-0.5	0.16	7.95	41.5	100
[6]	6.15	-7.57	-1.1	2.62	26.9
[9]	-11.4	-7.58	0	0.01	19.4
[11]	-19.2	-7.45	6.25	8.14	26.6
[13]	-1.97	-13.5	-2.5	4.32	28.6
[14]	-3.33	-1.98	1.34	25.6	67

Conditions	drug sensitivity score
DERL-7 (IL-2 2.5 ng/mL) [22]	9.98
IMC-1 (IL-2 20 ng/mL) [26]	4.51
KAI3 (IL-2 2.5 ng/mL) [24]	9.35
KHYG-1 (IL-2 2.5 ng/mL) [16]	12.6
NK-92 (IL-2 2.5 ng/mL) [21]	12.2
NK-YS (IL-2 2.5 ng/mL) [15]	11.7
NKL (IL-2 2.5 ng/mL) [17]	14
SNK-6 (IL-2 2.5 ng/mL) [19]	23.7
YT (IL-2 2.5 ng/mL) [18]	10.4
[20]	1.48
[23]	0.55
[25]	1.72
[27]	1.89
[28]	7.15
